Source: ChEMBL document CHEMBL1133073, “Structure-activity relationships of carboxymethylpullulan-peptide-doxorubicin conjugates--systematic modification of peptide spacers” (Bioorg Med Chem Lett, 2000)

What was measured:
Rattus norvegicus [1] = experiment: In vivo heart distribution of free doxorubicin after 6 hr intravenous administration of 2.5 mg/kg of compound in rat bearing Walker 256 cells; format: ADME, organism-based; parameters: dose 2.5 mg/kg, route intravenous
Rattus norvegicus [2] = experiment: In vivo liver distribution of free doxorubicin after 6 hr intravenous administration of 2.5 mg/kg of compound in rat bearing Walker 256 cells; format: ADME, organism-based; parameters: dose 2.5 mg/kg, route intravenous
Rattus norvegicus [3] = experiment: In vivo liver distribution of total doxorubicin after 6 h intravenous administration of 2.5 mg/kg of compound in rat bearing Walker 256 cells; format: ADME, organism-based; parameters: dose 2.5 mg/kg, route intravenous
Rattus norvegicus [4] = experiment: In vivo plasma distribution of free doxorubicin after 6 h intravenous administration of 2.5 mg/kg of compound in rat bearing Walker 256 cells; format: ADME, organism-based; parameters: dose 2.5 mg/kg, route intravenous
Rattus norvegicus [5] = experiment: In vivo plasma distribution of total doxorubicin after 6 hr intravenous administration of 2.5 mg/kg of compound in rat bearing Walker 256 cells; format: ADME, organism-based; parameters: dose 2.5 mg/kg, route intravenous
Rattus norvegicus [6] = experiment: In vivo spleen distribution of total doxorubicin after 6 hr intravenous administration of 2.5 mg/kg of compound in rat bearing Walker 256 cells; format: ADME, organism-based; parameters: dose 2.5 mg/kg, route intravenous
Rattus norvegicus [7] = experiment: In vivo tumor distribution of free doxorubicin after 6 h intravenous administration of 2.5 mg/kg of compound in rat bearing Walker 256 cells; format: ADME, organism-based; parameters: dose 2.5 mg/kg, route intravenous
Rattus norvegicus [8] = organism: Rattus norvegicus; experiment: Effective dose was measured in rats; format: functional
Rattus norvegicus [9] = experiment: In vivo tumor distribution of total doxorubicin after 6 hr intravenous administration of 2.5 mg/kg of compound in rat bearing Walker 256 cells; format: ADME, organism-based; parameters: dose 2.5 mg/kg, route intravenous

- Dose/g tissue (Rattus norvegicus [1]): 1.13%
- Dose/g tissue (Rattus norvegicus [2]): 0.56%
- Dose/g tissue (Rattus norvegicus [3]): 0.54%
- Dose/g tissue (Rattus norvegicus [4]): 0%
- Dose/g tissue (Rattus norvegicus [5]): 0%
- Dose/g tissue (Rattus norvegicus [6]): 2.21%
- Dose/g tissue (Rattus norvegicus [7]): 0.24%
- Dose/g tissue (Rattus norvegicus [9]): 0.35%
SMILES: COc1cccc2c1C(=O)c1c(O)c3c(c(O)c1C2=O)C[C@@](O)(C(=O)CO)C[C@@H]3O[C@H]1C[C@H](N)[C@H](O)[C@H](C)O1 [DOXORUBICIN]
- ED50 (Rattus norvegicus [8]): 1.17 mg/kg
